Converted amounts (≈) assume the structure as drawn.
Assays:
[1] = tested on: Enterococcus faecalis 2041; test: Broth micro-dilution MIC; type: cell-based; conditions: BHI medium
Experimental: (§1) The compounds of the present invention have in vitro activity against Gram-positive pathogenic bacteria. The antibacterial activity of the present compounds is illustrated in Tables III and IV. The minimal inhibitory concentrations (MICs) were determined using a standard broth micro-dilution assay. Table IV presents a comparison of the activity of illustrative compounds against representative vancomycin-resistant and vancomycin-sensitive enterococci (Enterococcus faecium and Enterococcus faecalis), mean geometric MIC (mcg/mL), as determined by the standard broth microdilution assay.
(§2) Assays for antimicrobial activity were performed using microbroth susceptibility testing methods as described by the NCCLS (National Committee for Clinical Laboratories Standards. 1990. Approved standard M7-A2. Methods for dilution antimicrobial susceptibility testing for bacteria that grow aerobically, 2 ed., Villanova Pa.). Brain-heart infusion medium (BHI) was used for testing of enterococci, and NCCLS recommendations for medium were followed for other bacteria.

[2] = tested on: Enterococcus faecalis 276; test: Broth micro-dilution MIC; type: cell-based; conditions: BHI medium
Experimental: as §1, §2

[3] = tested on: Enterococcus faecium 180-1; test: Broth micro-dilution MIC; type: cell-based; conditions: BHI medium
Experimental: as §1, §2

Enterococcus faecium 180 = test: Broth micro-dilution MIC; type: cell-based; conditions: BHI medium
Experimental: as §1, §2

[4] = tested on: Enterococcus gallinarum 245; test: Broth micro-dilution MIC; type: cell-based; conditions: BHI medium
Experimental: as §1, §2

Escherichia coli EC14 = test: Broth micro-dilution MIC; type: cell-based
Experimental: as §1, §2

[5] = tested on: Haemophilus influenzae RD; test: Broth micro-dilution MIC; type: cell-based
Experimental: as §1, §2

[6] = tested on: Staphylococcus aureus 446; test: Broth micro-dilution MIC; type: cell-based
Experimental: as §1, §2

[7] = tested on: Staphylococcus aureus 447; test: Broth micro-dilution MIC; type: cell-based
Experimental: as §1, §2

[8] = tested on: Staphylococcus aureus 489; test: Broth micro-dilution MIC; type: cell-based
Experimental: as §1, §2

[9] = tested on: Staphylococcus aureus 491; test: Broth micro-dilution MIC; type: cell-based
Experimental: as §1, §2

[10] = tested on: Staphylococcus aureus S13E; test: Broth micro-dilution MIC; type: cell-based
Experimental: as §1, §2

[11] = tested on: Staphylococcus aureus SA1199A; test: Broth micro-dilution MIC; type: cell-based
Experimental: as §1, §2

[12] = tested on: Staphylococcus aureus SA1199B; test: Broth micro-dilution MIC; type: cell-based
Experimental: as §1, §2

[13] = tested on: Staphylococcus aureus SA1199; test: Broth micro-dilution MIC; type: cell-based
Experimental: as §1, §2

[14] = tested on: Staphylococcus aureus X400; test: Broth micro-dilution MIC; type: cell-based
Experimental: as §1, §2

[15] = tested on: Staphylococcus aureus X778; test: Broth micro-dilution MIC; type: cell-based
Experimental: as §1, §2

[16] = tested on: Staphylococcus epidermidis 270; test: Broth micro-dilution MIC; type: cell-based
Experimental: as §1, §2

[17] = tested on: Staphylococcus haemolyticus 105; test: Broth micro-dilution MIC; type: cell-based
Experimental: as §1, §2

[18] = tested on: Staphylococcus haemolyticus 415; test: Broth micro-dilution MIC; type: cell-based
Experimental: as §1, §2

[19] = tested on: Streptococcus pneumoniae P1; test: Broth micro-dilution MIC; type: cell-based
Experimental: as §1, §2

[20] = tested on: Streptococcus pyogenes C203; test: Broth micro-dilution MIC; type: cell-based
Experimental: as §1, §2

[21] = tested on: vancomycin-resistant enterococci; test: In vitro activity against enterococci, broth microdilution; type: cell-based, Enterococcus faecium and Enterococcus faecalis; conditions: representative vancomycin-resistant enterococci (E. faecium and E. faecalis); BHI medium
Experimental: as §1, §2

[22] = tested on: vancomycin-sensitive enterococci; test: as above; type: cell-based, Enterococcus faecium and Enterococcus faecalis; conditions: representative vancomycin-sensitive enterococci (E. faecium and E. faecalis); BHI medium
Experimental: as §1, §2

Row | Compound | MIC [1] | MIC [2] | MIC [3] | MIC (Enterococcus faecium 180) | MIC [4] | MIC (Escherichia coli EC14) | MIC [5] | MIC [6] | MIC [7] | MIC [8] | MIC [9] | MIC [10] | MIC [11] | MIC [12] | MIC [13] | MIC [14] | MIC [15] | MIC [16] | MIC [17] | MIC [18] | also measured
1 | CCCCCCCCOc1ccc(C(=O)NC2(C)CC(OC3C(Oc4c5cc6cc4Oc4ccc(cc4Cl)C(OC4CC(C)(N)C(O)C(C)O4)C4NC(=O)C(NC(=O)C6NC(=O)C(CC(N)=O)NC(=O)C(NC(=O)C(CC(C)C)NC)C(O)c6ccc(c(Cl)c6)O5)c5ccc(O)c(c5)-c5c(O)cc(O)cc5C(C(=O)O)NC4=O)OC(CO)C(O)C3O)OC(C)C2O)cc1 (stereo not drawn) [Example 6] | 0.25 µg/mL (≈ 0.137 µM) | 1 µg/mL (≈ 0.548 µM) | 0.125 µg/mL (≈ 0.0685 µM) | 0.25 µg/mL (≈ 0.137 µM) | 8 µg/mL (≈ 4.38 µM) | >64 µg/mL | >64 µg/mL | 2 µg/mL (≈ 1.1 µM) | 8 µg/mL (≈ 4.38 µM) | 1 µg/mL (≈ 0.548 µM) | 2 µg/mL (≈ 1.1 µM) | 8 µg/mL (≈ 4.38 µM) | 0.25 µg/mL (≈ 0.137 µM) | 2 µg/mL (≈ 1.1 µM) | 4 µg/mL (≈ 2.19 µM) | 4 µg/mL (≈ 2.19 µM) | 2 µg/mL (≈ 1.1 µM) | 8 µg/mL (≈ 4.38 µM) | 0.5 µg/mL (≈ 0.274 µM) | 8 µg/mL (≈ 4.38 µM) | MIC [19]: 0.25 µg/mL (≈ 0.137 µM); MIC [20]: 0.125 µg/mL (≈ 0.0685 µM); Mean geometric MIC, Vancomycin Resistant Strains [21]: 11.3 µg/mL; Mean geometric MIC, Vancomycin Sensitive Strains [22]: 1.2 µg/mL
2 | CCCCCCCCOc1ccc(C(=O)NC2(C)CC(OC3c4ccc(c(Cl)c4)Oc4cc5cc(c4OC4OC(CO)C(O)C(O)C4OC4CC(C)(N)C(O)C(C)O4)Oc4ccc(cc4Cl)C(O)C(NC(=O)C(CC(C)C)NC)C(=O)NC(CC(N)=O)C(=O)NC5C(=O)NC4C(=O)NC3C(=O)NC(C(=O)O)c3cc(O)cc(O)c3-c3cc4ccc3O)OC(C)C2O)cc1 (stereo not drawn) [Example 7] | ≦.06 μg/ml | ≦.06 μg/ml | ≦.06 μg/ml | 0.5 µg/mL (≈ 0.274 µM) | 8 µg/mL (≈ 4.38 µM) | >64 µg/mL | >64 µg/mL | ≦.06 μg/ml | 0.125 µg/mL (≈ 0.0685 µM) | ≦.06 μg/ml | ≦.06 μg/ml | ≦.06 μg/ml | ≦.06 μg/ml | ≦.06 μg/ml | ≦.06 μg/ml | 0.125 µg/mL (≈ 0.0685 µM) | 0.125 µg/mL (≈ 0.0685 µM) | ≦.06 μg/ml | ≦.06 μg/ml | 8 µg/mL (≈ 4.38 µM) | MIC [19]: ≦.06 μg/ml; MIC [20]: ≦.06 μg/ml; Mean geometric MIC, Vancomycin Resistant Strains [21]: 6.7 µg/mL; Mean geometric MIC, Vancomycin Sensitive Strains [22]: 0.06 µg/mL
3 | CCCCCCCC(=O)NC1(C)CC(OC2C(Oc3c4cc5cc3Oc3ccc(cc3Cl)C(OC3CC(C)(N)C(O)C(C)O3)C3NC(=O)C(NC(=O)C5NC(=O)C(CC(N)=O)NC(=O)C(NC(=O)C(CC(C)C)NC)C(O)c5ccc(c(Cl)c5)O4)c4ccc(O)c(c4)-c4c(O)cc(O)cc4C(C(=O)O)NC3=O)OC(CO)C(O)C2O)OC(C)C1O (stereo not drawn) [Example 8, 4′-N-octanoyl-A82846B] | 0.25 µg/mL (≈ 0.145 µM) | 0.5 µg/mL (≈ 0.291 µM) | 0.125 µg/mL (≈ 0.0727 µM) | 2 µg/mL (≈ 1.16 µM) | 16 µg/mL (≈ 9.31 µM) | >64 µg/mL | 64 µg/mL (≈ 37.2 µM) | 2 µg/mL (≈ 1.16 µM) | 8 µg/mL (≈ 4.65 µM) | 0.25 µg/mL (≈ 0.145 µM) | 0.25 µg/mL (≈ 0.145 µM) | 2 µg/mL (≈ 1.16 µM) | 0.25 µg/mL (≈ 0.145 µM) | 2 µg/mL (≈ 1.16 µM) | 2 µg/mL (≈ 1.16 µM) | 0.5 µg/mL (≈ 0.291 µM) | 1 µg/mL (≈ 0.582 µM) | 8 µg/mL (≈ 4.65 µM) | 0.5 µg/mL (≈ 0.291 µM) | 16 µg/mL (≈ 9.31 µM) | MIC [19]: ≦.06 μg/ml; MIC [20]: ≦.06 μg/ml; Mean geometric MIC, Vancomycin Resistant Strains [21]: 54 µg/mL; Mean geometric MIC, Vancomycin Sensitive Strains [22]: 0.87 µg/mL
